Patent publication US6992079B2, “Substituted 11-phenyl-dibenzazepine compounds useful for the treatment or prevention of diseases characterized by abnormal cell proliferation” (President Fellows of Harvard College, priority 1997, dated 2006)
Read-outs that look alike come from different tables or passages of the source.

What was measured:
SF-295 = assay: In-Vitro Testing SRB panel: CNS Cancer; format: cell-based
HCT-116 = assay: In-Vitro Testing SRB panel: Colon Cancer; format: cell-based
[1] = test system: SU.86.86 pancreatic adenocarcinoma; assay: Mouse xenograft tumor growth; format: in vivo, nude mice; settings: SU.86.86 pancreatic adenocarcinoma mouse xenograft
OVCAR-8 = assay: In-Vitro Testing SRB panel: Ovarian Cancer; format: cell-based
[2] = test system: NIH 3T3 mouse fibroblast cells; assay: Mitogenic assay (mitogen-induced cell proliferation); format: cell-based; settings: Mus musculus, NIH3T3, 10 μM compound
NCI-H226 = format: cell-based
SK-OV-3 = assay: In-Vitro Testing SRB panel: Ovarian Cancer; format: cell-based
SW-620 = assay: In-Vitro Testing SRB panel: Colon Cancer; format: cell-based
[3] = test system: panel of human cancer cells; assay: In vitro screening, SRB, panel of 60 human cancer cell lines; format: cell-based
RXF 393 = assay: In-Vitro Testing SRB panel: Renal Cancer; format: cell-based

SMILES: COc1ccc2c(c1)CN(C(=O)c1ccc([N+](=O)[O-])cc1)c1ccc(Cl)cc1C2c1ccccc1Cl (centres unmarked) [Compound 30]
- TGI (SF-295; SF-295): >1.00E−04 Molar
- Percent Growth (SF-295; SF-295, Log10 concentration −4.0 Molar): 32%
- Percent Growth (SF-295; SF-295, Log10 concentration −5.0 Molar): 41%
- Percent Growth (SF-295; SF-295, Log10 concentration −6.0 Molar): 88%
- Percent Growth (SF-295; SF-295, Log10 concentration −7.0 Molar): 104%
- Percent Growth (SF-295; SF-295, Log10 concentration −8.0 Molar): 93%
- TGI (HCT-116; HCT-116): 1.00E−04 Molar
- Percent Growth (HCT-116; HCT-116, Log10 concentration −4.0 Molar): 22%
- Percent Growth (HCT-116; HCT-116, Log10 concentration −5.0 Molar): 17%
- Percent Growth (HCT-116; HCT-116, Log10 concentration −6.0 Molar): 63%
- Percent Growth (HCT-116; HCT-116, Log10 concentration −7.0 Molar): 90%
- Percent Growth (HCT-116; HCT-116, Log10 concentration −8.0 Molar): 97%
- GI50 (HCT-116; Homo sapiens, HCT-116): 1.91 µM
- CC50 (HCT-116; Homo sapiens, HCT-116, read-out: LC50 (the source's name)): > 100 µM
- tumor growth [1]: showed inhibition of tumor growth
- GI50 (OVCAR-8; Homo sapiens, OVCAR-8): 7.72 µM
- CC50 (OVCAR-8; Homo sapiens, OVCAR-8, read-out: LC50 (the source's name)): > 100 µM
- TGI (OVCAR-8; OVCAR-8): >1.00E−04 Molar
- Percent Growth (OVCAR-8; OVCAR-8, Log10 concentration −4.0 Molar): 48%
- Percent Growth (OVCAR-8; OVCAR-8, Log10 concentration −5.0 Molar): 46%
- Percent Growth (OVCAR-8; OVCAR-8, Log10 concentration −6.0 Molar): 84%
- Percent Growth (OVCAR-8; OVCAR-8, Log10 concentration −7.0 Molar): 95%
- Percent Growth (OVCAR-8; OVCAR-8, Log10 concentration −8.0 Molar): 96%
- inhibition at 10 µM [2]: 99%
- GI50 (NCI-H226; Homo sapiens, NCI-H226): 3.98 µM
- CC50 (NCI-H226; Homo sapiens, NCI-H226, read-out: LC50 (the source's name)): > 100 µM
- TGI (NCI-H226; NCI-H226): >1.00E−04 Molar
- Percent Growth (NCI-H226; NCI-H226, Log10 concentration −4.0 Molar): 34%
- Percent Growth (NCI-H226; NCI-H226, Log10 concentration −5.0 Molar): 35%
- Percent Growth (NCI-H226; NCI-H226, Log10 concentration −6.0 Molar): 73%
- Percent Growth (NCI-H226; NCI-H226, Log10 concentration −7.0 Molar): 79%
- Percent Growth (NCI-H226; NCI-H226, Log10 concentration −8.0 Molar): 83%
- GI50 (SK-OV-3; Homo sapiens, SK-OV-3): > 100 µM
- CC50 (SK-OV-3; Homo sapiens, SK-OV-3, read-out: LC50 (the source's name)): > 100 µM
- TGI (SK-OV-3; SK-OV-3): >1.00E−04 Molar
- Percent Growth (SK-OV-3; SK-OV-3, Log10 concentration −4.0 Molar): 66%
- Percent Growth (SK-OV-3; SK-OV-3, Log10 concentration −5.0 Molar): 76%
- Percent Growth (SK-OV-3; SK-OV-3, Log10 concentration −6.0 Molar): 88%
- Percent Growth (SK-OV-3; SK-OV-3, Log10 concentration −7.0 Molar): 95%
- Percent Growth (SK-OV-3; SK-OV-3, Log10 concentration −8.0 Molar): 93%
- TGI (ERVX; ERVX): >1.00E−04 Molar
- Percent Growth (ERVX; ERVX, Log10 concentration −4.0 Molar): 18%
- Percent Growth (ERVX; ERVX, Log10 concentration −5.0 Molar): 23%
- Percent Growth (ERVX; ERVX, Log10 concentration −6.0 Molar): 78%
- Percent Growth (ERVX; ERVX, Log10 concentration −7.0 Molar): 96%
- Percent Growth (ERVX; ERVX, Log10 concentration −8.0 Molar): 92%
- GI50 (ERVX; Homo sapiens): 3.24 µM
- CC50 (ERVX; Homo sapiens, read-out: LC50): > 100 µM
- GI50 (SW-620; Homo sapiens, SW-620): > 100 µM
- CC50 (SW-620; Homo sapiens, SW-620, read-out: LC50 (the source's name)): > 100 µM
- TGI (SW-620; SW-620): >1.00E−04 Molar
- Percent Growth (SW-620; SW-620, Log10 concentration −4.0 Molar): 56%
- Percent Growth (SW-620; SW-620, Log10 concentration −5.0 Molar): 57%
- Percent Growth (SW-620; SW-620, Log10 concentration −6.0 Molar): 87%
- Percent Growth (SW-620; SW-620, Log10 concentration −7.0 Molar): 99%
- Percent Growth (SW-620; SW-620, Log10 concentration −8.0 Molar): 102%
- activity against the human cell panel [3]: exhibited activity against the human cell panel
- GI50 (RXF 393; Homo sapiens, RXF 393): 3.4 µM
- CC50 (RXF 393; Homo sapiens, RXF 393, read-out: LC50 (the source's name)): > 100 µM
- TGI (RXF 393; RXF 393): >1.00E−04 Molar
- Percent Growth (RXF 393; RXF 393, Log10 concentration −4.0 Molar): 20%
- Percent Growth (RXF 393; RXF 393, Log10 concentration −5.0 Molar): 23%
- Percent Growth (RXF 393; RXF 393, Log10 concentration −6.0 Molar): 81%
- Percent Growth (RXF 393; RXF 393, Log10 concentration −7.0 Molar): 97%
- Percent Growth (RXF 393; RXF 393, Log10 concentration −8.0 Molar): 90%
